Results as given in PMC9916969 (International Journal of Molecular Sciences, 2023).

Columns and labels:
human erythrocyte AChE = target: T1, human erythrocyte AChE (Homo sapiens, UniProt P22303); assay: biochemical; conditions: mean ± SEM, n = 3, read-out: Inhibitory activity against AChE, IC50
T1 construct: human erythrocyte AChE, equine serum BChE, and porcine liver CES were used; purchased Sigma-Aldrich; host or cells: human erythrocytes (tissue-derived)
Text: (§1) Assessment of the esterase profile of new potential anti-AD molecules enables the estimation of both the primary pharmacological effects of the tested compounds—their inhibition of AChE and BChE—and their possible unwanted side effect—inhibition of CES, which hydrolyzes numerous ester-containing drugs. For the esterase profile evaluation, human erythrocyte AChE, equine serum BChE, and porcine liver CES were used. These sources of BChE and CES were employed because of their relatively low cost, high sequence identity to human enzymes, and the exploratory character of this work.
(§2) Chromophore absorbances were measured with a FLUOStar Optima microplate reader (BMG Labtech, Ortenberg, Germany). […] Initially, we used a single concentration of 20 µM for all compounds.

equine serum BChE = target: T2, equine serum BChE (Equus caballus, UniProt P81908); assay: biochemical; conditions: mean ± SEM, n = 3, read-out: Inhibitory activity against BChE, IC50
T2 construct: human erythrocyte AChE, equine serum BChE, and porcine liver CES were used; purchased Sigma-Aldrich; host or cells: equine serum (tissue-derived)
Text: as §1, §2

in vitro = type: cell-based; conditions: mouse
Procedure: […]. Accordingly, in the present work, we paid special attention to the study of the cytotoxic activity of compounds on primary cultures of mouse hepatocytes using standard MTT methodology.
The cytotoxicity of the compounds was evaluated using a primary culture of mouse hepatocytes isolated at the Center for Biotechnology and Bioengineering, Ural Federal University, Ekaterinburg, Russia, according to the standard method. Cells were seeded in 96-well plates in the inoculum dose of 1 × 10^4 cells/mL and cultured for 24 h in Dulbecco’s Modified Eagle Medium (DMEM), with 1% (w/v) glutamine in the presence of 10% (v/v) fetal bovine serum and gentamicin (50 mg/L) at 37 °C, with a humidified atmosphere of 5% (v/v) CO2. Cell viability was assessed using the standard MTT assay. The compounds were dissolved in DMSO and then in a nutrient medium, after which they were added to the wells with cells at final concentrations of 10^−7, 10^−6, 10^−5, and 10^−4 M. Hepatocytes were exposed to test compounds for 24 h at 37 °C, 95% relative humidity and 5% (v/v) CO2 atmosphere. After incubation, the medium was replaced with 100 μL of fresh medium containing MTT (0.5 mg/mL). The plates were then incubated at 37°C in a CO2 incubator for 2 h. Then the medium with MTT was removed and DMSO was added to dissolve the formazan crystals.
The results of the MTT assay were evaluated on a Tecan Infinite M200 PRO (Tecan Austria GmbH, Grödig, Austria) plate spectrophotometer at 570 nm by comparing the optical density of a formazan solution in the assay and control wells. The cell viability was expressed as the percentage of untreated control. The results were obtained from three independent experiments performed in six replicates. The IC50 (μM) values were calculated by the AAT Bioquest-calculator: (https://www.aatbio.com/tools/ic50-calculator, accessed on 1 December 2022) and expressed as a mean ± standard error of the mean (SEM). Statistical analysis was carried out using Microsoft Excel 2007 (Microsoft Corporation, Redmond, WA, USA) and Statistica 2009 (Tulsa, OK, USA) programs.

β-amyloid (1–42) (Aβ42) = β-amyloid (1–42) (Aβ42) (Homo sapiens, UniProt P05067); assay: Inhibition of Aβ42 self-aggregation (thioflavin T); type: biochemical; conditions: Aβ42 50 µM; compound 100 µM; 24 h, 37 °C; thioflavin T; read-out: Inhibition of Aβ42 Self-Aggregation
Procedure: The inhibitory activity of tested hybrids against the self-aggregation of Aβ42 was determined in vitro using the thioflavin T (ThT) fluorimetric assay. According to [84], the ThT test is ideal for preliminary screening of inhibitors of Aβ42 self-aggregation, as it enables the quantitative testing of large numbers of compounds within a relatively short time.
The influence of the inhibitory effect of the test compounds toward Aβ42 self-aggregation was determined using the thioflavin T (ThT) fluorescence method with minor modifications. This assay is based on a specific interaction between the fluorescent dye thioflavin T that binds to the β-sheets of assembled amyloid fibrils leading to a significant increase in fluorescence signal. Therefore, the decrease in ThT fluorescence correlates with the ability of the studied compounds to inhibit the formation of amyloid aggregates.
One mg of lyophilized HFIP-pretreated Aβ42 from BACHEM (Bubendorf, Switzerland) was dissolved in DMSO to obtain a stable initial solution ([Aβ42] = 500 μM); then it was aliquoted and stored at −20 °C.
For the measurement of Aβ42 self-aggregation and amyloid fibril inhibition studies by the tested compounds, aliquots of 500 μM Aβ42 stock solution were diluted in 215 mM Na-phosphate buffer pH = 8.0 to a final concentration of 50 μM Aβ42. Then the samples were incubated for 24 h at 37 °C without stirring in the absence (base level of Aβ42 self-aggregation, control) or presence of the test compounds. Myricetin and propidium iodide were used as reference compounds (positive controls). All compounds were used in a concentration of 100 µM. To quantify Aβ42 fibril formation, after incubation, 5 μM ThT in 50 mM glycine-NaOH buffer pH 8.5 was added to the solutions to a final concentration of 4 μM ThT and the fluorescence was measured at 440 nm (excitation) and 485 nm (emission). Analyses were performed with a FLUOStar Optima microplate reader (LabTech, Ortenberg, Germany). The blanks consisted of 215 mM Na-phosphate buffer, pH = 8.0, 20% (v/v) DMSO or test compounds, respectively. Each assay was run in triplicate.

porcine liver CES = assay: In vitro CES inhibition (4-NPA substrate); type: biochemical; conditions: compound 20 µM, n.a. = not active
Text: as §1, §2

Sequence of β-amyloid (1–42) (Aβ42) (P05067 672-713 limits assumed): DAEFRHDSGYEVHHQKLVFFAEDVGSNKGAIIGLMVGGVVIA
T2 sequence (P81908 whole entry): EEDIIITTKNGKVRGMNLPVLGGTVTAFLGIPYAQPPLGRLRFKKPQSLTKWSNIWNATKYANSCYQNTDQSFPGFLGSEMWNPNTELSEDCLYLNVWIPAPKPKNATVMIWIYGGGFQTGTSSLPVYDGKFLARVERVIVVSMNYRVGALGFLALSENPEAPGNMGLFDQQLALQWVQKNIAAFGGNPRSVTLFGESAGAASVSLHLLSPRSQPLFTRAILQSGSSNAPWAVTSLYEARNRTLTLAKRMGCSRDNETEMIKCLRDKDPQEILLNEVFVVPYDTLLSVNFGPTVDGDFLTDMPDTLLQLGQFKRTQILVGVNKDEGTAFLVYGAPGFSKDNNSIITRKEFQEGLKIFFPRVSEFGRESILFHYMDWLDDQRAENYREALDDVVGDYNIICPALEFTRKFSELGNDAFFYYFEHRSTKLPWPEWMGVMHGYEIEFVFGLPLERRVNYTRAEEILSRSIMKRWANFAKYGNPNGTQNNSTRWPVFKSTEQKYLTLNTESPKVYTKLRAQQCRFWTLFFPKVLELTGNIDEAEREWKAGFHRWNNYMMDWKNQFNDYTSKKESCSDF
T1 sequence (P22303 32-617 isoform P22303-2 limits assumed): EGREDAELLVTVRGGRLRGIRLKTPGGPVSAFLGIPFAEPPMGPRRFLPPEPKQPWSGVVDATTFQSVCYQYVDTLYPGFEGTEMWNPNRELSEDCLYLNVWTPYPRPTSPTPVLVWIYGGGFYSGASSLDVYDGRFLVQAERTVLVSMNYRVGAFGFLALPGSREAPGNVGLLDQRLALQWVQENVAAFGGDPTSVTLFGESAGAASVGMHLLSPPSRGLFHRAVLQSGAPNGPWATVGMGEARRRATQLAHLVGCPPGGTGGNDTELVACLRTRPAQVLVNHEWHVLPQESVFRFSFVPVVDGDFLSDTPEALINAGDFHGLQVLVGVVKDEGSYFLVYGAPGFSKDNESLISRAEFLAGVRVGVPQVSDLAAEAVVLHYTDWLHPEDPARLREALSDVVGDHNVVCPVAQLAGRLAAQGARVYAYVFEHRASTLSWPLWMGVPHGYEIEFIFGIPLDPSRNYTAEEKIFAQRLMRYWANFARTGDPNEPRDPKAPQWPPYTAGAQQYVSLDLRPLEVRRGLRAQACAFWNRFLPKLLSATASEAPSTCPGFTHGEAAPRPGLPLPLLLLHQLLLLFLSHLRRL

Row | Structure (SMILES) | IC50 (human erythrocyte AChE) | IC50 (equine serum BChE) | IC50 at 24 h (in vitro) | inhibition at 100 µM (β-amyloid (1–42) (Aβ42)) | Inhibitory activity against CES, inhibition at 20 µM (porcine liver CES)
1 | O=C(NCCCCCCNc1c2c(nc3ccccc13)CCCC2)c1ccccc1O [5b] | 294 ± 8 nM | 11.9 ± 0.1 nM | 4890 ± 80 nM | 41.5 ± 2.9% | 19.5 ± 0.9%
2 | O=C(NCCCCCCNc1c2c(nc3ccccc13)CCCC2)c1cc(F)c(F)cc1O [7b] | 249 ± 17 nM | 31.7 ± 3 nM | 15160 ± 90 nM | 24.1 ± 2.1% | 7.1 ± 1.0%
3 | O=C(NCCCCCCCCNc1c2c(nc3ccccc13)CCCC2)c1cc(F)c(F)cc1O [7c] | 188 ± 15 nM | 22.6 ± 1.8 nM |  | 37.2 ± 2.9% | 8.6 ± 0.7%
4 | Oc1ccccc1/C=N/CCCCCCCCNc1c2c(nc3ccccc13)CCCC2 [10c] | 82.6 ± 4.6 nM | 15.6 ± 1.2 nM | 5870 ± 140 nM | 80.1 ± 5.6% | 23.0 ± 0.3%
